According to patent US9481639B2, “Substituted tetracycline compounds for treatment of inflammatory skin disorders” (Paratek Pharmaceuticals, Inc., priority 2006, dated 2016):
Converted amounts (≈) assume the structure as drawn.

How the values were obtained:
Assay type in all cases: cell-based
[1] = test system: S. pneumoniae 157E - Strep; experiment: Antibacterial MIC, CLSI broth microdilution; settings: Streptococcus pneumoniae, 157ESTREP; broth supplemented with lysed horse blood
Method: (§1) Gram (−) and gram (+) antibacterial minimum inhibitory concentration (MIC) values (μg/mL) were obtained using CLSI methodology for anti-bacterial susceptibility testing. On each day of testing, serial dilutions of compounds were prepared in microdilution plates using a Tecan robotic workstation. Mueller Hinton broth cultures of representative sensitive and resistant gram negative strains were grown or adjusted to match the turbidity of a 0.5 McFarland standard. 1:200 dilutions were made in an appropriate broth (cation supplemented Mueller Hinton broth) to allow a final inoculum of 1×10^5 cfu. Plates were incubated at 35° C. in ambient air for 18-24 hours, were read spectrophotometrically and checked manually for evidence of bacterial growth. The lowest dilution of compound that inhibited growth was recorded as the MIC. Lysed horse blood was used to supplement broth for testing S. pneumoniae. The MIC's for each compound were assessed against S. aureus, S. pneumoniae, P. acnes, E. coli and B. theta.

[2] = test system: S. aureus RN450; experiment: Antibacterial MIC, CLSI broth microdilution; settings: Staphylococcus aureus, 35° C., 18-24 hours
Method: as §1

[3] = test system: P. acnes ATCC 6919; experiment: Antibacterial MIC, CLSI broth microdilution; settings: Cutibacterium acnes, ATCC6919
Method: as §1

[4] = test system: P. acnes ATCC 11827; experiment: Antibacterial MIC, CLSI broth microdilution; settings: Cutibacterium acnes, ATCC11827
Method: as §1

[5] = test system: E. coli ATCC 25922; experiment: Antibacterial MIC, CLSI broth microdilution; settings: Escherichia coli, ATCC25922; 35° C., 18-24 hours
Method: as §1

[6] = test system: B. thetaiotaomicron ATCC 29741; experiment: Antibacterial MIC, CLSI broth microdilution; settings: Bacteroides thetaiotaomicron, ATCC29741; read-out: MIC B. thetaiotaomicron ATCC 29741
Method: as §1

[7] = test system: E. coli MG. 1655; experiment: Antibacterial MIC, CLSI broth microdilution; settings: Escherichia coli, 35° C., 18-24 hours
Method: as §1

[8] = in vitro
Method: Mammalian cell cytotoxicity was assessed to evaluate potential in vivo risks associated with the tetracycline compounds of the invention. A soluble, non-toxic redox dye (“Resazurin”; Alamar Blue) was used to assess a tetracycline compound's effect on cellular metabolism. At the onset of the experiment, cultures of mammalian COS-1 or CHO cells were washed, trypsinized, and harvested. […] On the next day, serial dilutions of test drug were prepared under sterile conditions and transferred to cell plates. Plates were then incubated under the above conditions for 24 hours. Following the incubation period, the media/drug was aspirated, and 50 μL of resazurin was added. Plates were then incubated under the above conditions for 2 hours and then in the dark at room temperature for an additional 30 minutes. Fluorescence measurements were taken (excitation 535 nm, emission 590 nm) and toxic effects in treated versus control cells were compared based on the degree of fluorescence in each well.

SMILES | MIC [1] [mg/L] | MIC [2] [mg/L] | MIC [3] [mg/L] | MIC [4] [mg/L] | MIC [5] [mg/L] | MIC [6] [mg/L] | MIC [7] [mg/L] | IC50 at 24 h ([8]; African green monkey) [mg/L] | IC50 at 24 h ([8]; Chinese hamster) [mg/L]
CC(=NOC(C)(C)C)c1cc(N)c(O)c2c1C[C@H]1C[C@H]3[C@@H](N(C)C)C(O)=C(C(N)=O)C(=O)[C@@]3(O)C(O)=C1C2=O [R] | < 4 | < 4 | < 4 | < 4 | > 8 | 4 to 8 (≈ 7.37 to 14.7 µM) | > 8 | < 35 | < 35
CCON=C(C)c1cc(N)c(O)c2c1C[C@H]1C[C@H]3[C@H](N(C)C)C(O)=C(C(N)=O)C(=O)[C@@]3(O)C(O)=C1C2=O [M] | < 4 | < 4 | < 4 | < 4 | < 4 | 4 to 8 (≈ 7.77 to 15.5 µM) | 4 to 8 (≈ 7.77 to 15.5 µM) | > 75 | > 75
CC(=NOCC(F)(F)F)c1cc(N)c(O)c2c1C[C@H]1C[C@H]3[C@H](N(C)C)C(O)=C(C(N)=O)C(=O)[C@@]3(O)C(O)=C1C2=O [Compound AW, (4S,4aS,5aR,12aS)-9-Amino-4-dimethylamino-3,10,12,12a-tetrahydroxy-1,1,1-dioxo-7-[1-(2,2,2-trifluoro-ethoxyimino)-ethyl]-1,4,4a,5,5a,6,11,12a-octahydro-naphthacene-2-carboxylic acid amide] | < 4 | < 4 | < 4 | < 4 | 4 to 8 (≈ 7.04 to 14.1 µM) | 4 to 8 (≈ 7.04 to 14.1 µM) | 4 to 8 (≈ 7.04 to 14.1 µM) | – | –
CCON=C(C)c1cc(CNCC(C)(C)C)c(O)c2c1C[C@H]1C[C@H]3[C@H](N(C)C)C(O)=C(C(N)=O)C(=O)[C@@]3(O)C(O)=C1C2=O [Compound N, (4S,4aS,5aR,12aS)-4-Dimethylamino-9-[(2,2-dimethyl-propylamino)-methyl]-7-(1-ethoxyimino-ethyl)-3,10,12,12a-tetrahydroxy-1,11-dioxo-1,4,4a,5,5a,6,11,12a-octahydro-naphthacene-2-carboxylic acid amide] | < 4 | < 4 | < 4 | < 4 | < 4 | < 4 | 4 to 8 (≈ 6.68 to 13.4 µM) | > 75 | > 75
CCON=C(CCN(C)C)c1ccc(O)c2c1C[C@H]1C[C@H]3[C@@H](N(C)C)C(O)=C(C(N)=O)C(=O)[C@@]3(O)C(O)=C1C2=O [Compound I, (4R,4aS,5aR,12aS)-4-Dimethylamino-7-(3-dimethylamino-1-ethoxyimino-propyl)-3,10,12,12a-tetrahydroxy-1,11-dioxo-1,4,4a,5,5a,6,11,12a-octahydro-naphthacene-2-carboxylic acid amide] | < 4 | < 4 | < 4 | < 4 | < 4 | 4 to 8 (≈ 7.19 to 14.4 µM) | < 4 | > 75 | > 75
CN(C)CCC(=NOC(C)(C)C)c1ccc(O)c2c1C[C@H]1C[C@H]3[C@H](N(C)C)C(O)=C(C(N)=O)C(=O)[C@@]3(O)C(O)=C1C2=O [O] | < 4 | < 4 | < 4 | < 4 | < 4 | < 4 | < 4 | 35 to 75 (≈ 59.9 to 128 µM) | < 35
